Source: ChEMBL document CHEMBL1136459, “New antibacterial tetrahydro-4(2H)-thiopyran and thiomorpholine S-oxide and S,S-dioxide phenyloxazolidinones” (Bioorg Med Chem Lett, 2003)
≈ marks a conversion by molar mass, not a printed value.

Assays:
Haemophilus influenzae [1] = experiment: In vitro antibacterial activity against Haemophilia influenzae strains 30063 and ATCC 31517 (HI); range is 16-32; assay type: functional
Moraxella catarrhalis [2] = experiment: In vitro antibacterial activity against Moraxella catarrhalis strains 30607 and 30603 (MC).; assay type: functional
Staphylococcus aureus [3] = experiment: In vitro antibacterial activity against Staphylococcus aureus strains UC12673, UC9213, ATCC 29213, and UC9271 (SA); range is 4-16; assay type: functional
Enterococcus faecium = experiment: In vitro antibacterial activity against vancomycin-resistant Enterococcus faecium UC12712 (VRE).
Streptococcus pneumoniae [4] = experiment: In vitro antibacterial activity against Streptococcus pneumoniae strains ATCC6305 and 31573 (SPN).
Staphylococcus aureus [5] = experiment: In vitro antibacterial activity against Linezolid resistance Staphylococcus aureus ATCC 29213 (LRSA)
Haemophilus influenzae [6] = experiment: In vitro antibacterial activity against Haemophilia influenzae strains 30063 and ATCC 31517 (HI); range is 4-8; assay type: functional
Moraxella catarrhalis [7] = experiment: In vitro antibacterial activity against Moraxella catarrhalis strains 30607 and 30603 (MC); range is 2-4; assay type: functional
[8] = test system: Staphylococcus epidermidis; experiment: In vitro antibacterial activity against Staphylococcus epidermidis strains UC12084, 30031, and CDC-CNS90 (SE); assay type: functional
Staphylococcus aureus [9] = experiment: In vitro antibacterial activity against Staphylococcus aureus strains UC12673, UC9213, ATCC 29213, and UC9271 (SA); range is 2-4; assay type: functional
Staphylococcus aureus [10] = experiment: In vitro antibacterial activity against linezolid-resistant Staphylococcus aureus ATCC 29213 (LRSA).; assay type: functional
Haemophilus influenzae [11] = experiment: In vitro antibacterial activity against Haemophilia influenzae strains ATCC 30063 and ATCC 31517; assay type: functional
Staphylococcus aureus [12] = experiment: In vitro antibacterial activity against Staphylococcus aureus strains UC12673, UC9213, ATCC 29213, and UC9271 (SA); assay type: functional
[13] = test system: Staphylococcus epidermidis; experiment: In vitro antibacterial activity against Staphylococcus epidermidis strains UC12084, 30031, and CDC-CNS90 (SE); range is 32->64; assay type: functional
Streptococcus pneumoniae [14] = experiment: In vitro antibacterial activity against Streptococcus pneumoniae strains ATCC 6305 and 31573 (SPN); range is 32-64; assay type: functional
Moraxella catarrhalis [15] = experiment: In vitro antibacterial activity against Moraxella catarrhalis strains 30607 and 30603 (MC); range is 32-64; assay type: functional
Staphylococcus aureus [16] = experiment: In vitro antibacterial activity against Staphylococcus aureus strains UC12673, UC9213, ATCC 29213, and UC9271 (SA); range is 8-32; assay type: functional

SMILES	MIC (Haemophilus influenzae [1]) [µg/mL]	MIC (Moraxella catarrhalis [2]) [µg/mL]	MIC (Staphylococcus aureus [3]) [µg/mL]	MIC (Enterococcus faecium) [µg/mL]	MIC (Streptococcus pneumoniae [4]) [µg/mL]	MIC (Staphylococcus aureus [5]) [µg/mL]	MIC (Haemophilus influenzae [6]) [µg/mL]	MIC (Moraxella catarrhalis [7]) [µg/mL]	MIC [8] [µg/mL]	MIC (Staphylococcus aureus [9]) [µg/mL]	MIC (Staphylococcus aureus [10]) [µg/mL]	MIC (Haemophilus influenzae [11]) [µg/mL]	MIC (Staphylococcus aureus [12]) [µg/mL]	MIC [13] [µg/mL]	MIC (Streptococcus pneumoniae [14]) [µg/mL]	MIC (Moraxella catarrhalis [15]) [µg/mL]	MIC (Staphylococcus aureus [16]) [µg/mL]
O=C(NC[C@H]1CN(c2ccc(N3CCS(=O)(=O)CC3)c(F)c2)C(=O)O1)C1CC1	16 (≈ 38.9 µM)	4 (≈ 9.72 µM)	4 (≈ 9.72 µM)	4 (≈ 9.72 µM)	2 (≈ 4.86 µM)	2 (≈ 4.86 µM)	–	–	–	–	–	–	–	–	–	–	–
CC(=O)NC[C@H]1CN(c2ccc(C3CCS(=O)(=O)CC3)c(F)c2)C(=O)O1	–	–	–	2 (≈ 5.2 µM)	0.5 (≈ 1.3 µM)	–	4 (≈ 10.4 µM)	2 (≈ 5.2 µM)	0.5 (≈ 1.3 µM)	2 (≈ 5.2 µM)	32 (≈ 83.2 µM)	–	–	–	–	–	–
CC(C)CCC(=O)NC[C@H]1CN(c2ccc(N3CC[S+]([O-])CC3)c(F)c2)C(=O)O1	–	> 64	–	> 64	–	–	–	–	–	–	> 64	> 64	≥ 64	32 (≈ 75.2 µM)	–	–	–
NCCC(O)C(=O)NC[C@H]1CN(c2ccc(C3CCS(=O)(=O)CC3)c(F)c2)C(=O)O1 (stereo partly specified)	–	> 64	–	–	–	–	–	–	> 64	–	> 64	> 64	> 64	–	32 (≈ 72.2 µM)	–	–
CC(=O)Oc1ccc(C(=O)NC[C@H]2CN(c3ccc(C4CC[S+]([O-])CC4)c(F)c3)C(=O)O2)cc1 (stereo partly specified)	–	–	–	0.06 (≈ 0.123 µM)	–	–	–	–	4 (≈ 8.19 µM)	–	64 (≈ 131 µM)	64 (≈ 131 µM)	–	–	–	32 (≈ 65.5 µM)	8 (≈ 16.4 µM)
